Measured values as given in BindingDB's records for doi:10.1021/jm030146j (Merck Research Laboratories, 2003).

Biological target: Integrin alpha-IIb/beta-3 (Homo sapiens, UniProt P08514+P05106)
Assay: Inhibition of human alphaIIb-beta3 integrin in platelet aggregation assay

Chain of Integrin alpha-IIb/beta-3 (P05106 27-788 limits assumed): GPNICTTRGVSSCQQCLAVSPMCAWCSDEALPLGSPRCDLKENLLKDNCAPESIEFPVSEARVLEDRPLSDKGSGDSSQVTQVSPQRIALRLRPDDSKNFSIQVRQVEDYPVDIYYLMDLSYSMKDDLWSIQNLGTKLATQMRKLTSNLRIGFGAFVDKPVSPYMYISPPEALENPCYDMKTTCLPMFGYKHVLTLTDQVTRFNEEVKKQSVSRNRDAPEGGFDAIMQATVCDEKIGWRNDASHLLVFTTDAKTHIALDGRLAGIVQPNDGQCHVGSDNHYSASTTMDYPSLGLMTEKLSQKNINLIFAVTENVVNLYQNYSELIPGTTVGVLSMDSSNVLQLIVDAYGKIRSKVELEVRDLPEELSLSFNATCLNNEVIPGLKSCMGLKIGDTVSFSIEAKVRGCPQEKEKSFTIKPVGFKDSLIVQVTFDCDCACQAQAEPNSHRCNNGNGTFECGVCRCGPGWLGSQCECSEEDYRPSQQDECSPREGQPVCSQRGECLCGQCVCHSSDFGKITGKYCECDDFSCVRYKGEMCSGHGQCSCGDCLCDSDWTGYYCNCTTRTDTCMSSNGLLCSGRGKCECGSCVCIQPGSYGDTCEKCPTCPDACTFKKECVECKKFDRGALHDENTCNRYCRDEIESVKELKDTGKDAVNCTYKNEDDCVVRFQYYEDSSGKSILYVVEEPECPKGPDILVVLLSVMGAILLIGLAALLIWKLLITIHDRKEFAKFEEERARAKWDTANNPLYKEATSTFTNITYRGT
Chain of Integrin alpha-IIb/beta-3 (P08514 32-887 limits assumed): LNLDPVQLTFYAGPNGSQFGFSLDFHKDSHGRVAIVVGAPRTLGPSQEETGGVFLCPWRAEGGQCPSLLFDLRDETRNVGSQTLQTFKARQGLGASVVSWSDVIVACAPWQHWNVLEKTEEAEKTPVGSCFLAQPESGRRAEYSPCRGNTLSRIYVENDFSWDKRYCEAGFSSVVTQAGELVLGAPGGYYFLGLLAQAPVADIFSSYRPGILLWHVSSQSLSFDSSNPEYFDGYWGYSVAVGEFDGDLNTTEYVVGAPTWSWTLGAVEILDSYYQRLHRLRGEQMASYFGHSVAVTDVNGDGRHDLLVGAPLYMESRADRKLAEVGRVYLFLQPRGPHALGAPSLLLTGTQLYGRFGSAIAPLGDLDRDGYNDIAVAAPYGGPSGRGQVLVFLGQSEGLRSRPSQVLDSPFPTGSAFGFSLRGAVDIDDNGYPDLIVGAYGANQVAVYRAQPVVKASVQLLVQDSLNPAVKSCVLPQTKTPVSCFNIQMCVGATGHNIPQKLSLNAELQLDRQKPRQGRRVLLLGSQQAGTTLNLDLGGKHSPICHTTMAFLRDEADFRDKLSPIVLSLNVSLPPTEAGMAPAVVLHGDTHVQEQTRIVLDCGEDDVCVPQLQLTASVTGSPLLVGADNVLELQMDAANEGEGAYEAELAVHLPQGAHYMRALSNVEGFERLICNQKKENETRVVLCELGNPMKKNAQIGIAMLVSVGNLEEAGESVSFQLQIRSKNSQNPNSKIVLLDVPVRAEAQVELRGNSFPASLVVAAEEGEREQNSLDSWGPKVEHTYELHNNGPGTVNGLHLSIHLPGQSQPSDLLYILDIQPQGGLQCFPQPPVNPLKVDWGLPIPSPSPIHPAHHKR
Chain of Integrin alpha-IIb/beta-3 (P08514 891-1039 limits assumed): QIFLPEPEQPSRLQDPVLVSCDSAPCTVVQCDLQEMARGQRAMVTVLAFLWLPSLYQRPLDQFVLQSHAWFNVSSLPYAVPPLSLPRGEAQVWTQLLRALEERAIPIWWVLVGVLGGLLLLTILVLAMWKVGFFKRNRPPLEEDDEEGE

Structure (SMILES) | IC50 [nM]
O=C(NC[C@H](NS(=O)(=O)c1ccccc1)C(=O)O)c1ccc(N2CCNCC2)cc1 [2-((S)-Benzenesulfonylamino)-3-(4-piperazin-1-yl-benzoylamino)-propionic acid] | 16
O=C(O)CC(NC(=O)CCCCc1ccc2c(n1)NCCC2)c1cncnc1 (stereo not given) [3-Pyrimidin-5-yl-3-(5-5,6,7,8-tetrahydro-[1,8]naphthyridin-2-yl-pentanoylamino)-propionic acid] | > 10000
CC1(C)[C@@H]2CC[C@@]1(CS(=O)(=O)N[C@@H](CNC(=O)c1ccc(CCc3ccc4c(n3)NCCC4)cc1)C(=O)O)C(=O)C2 [2-((S)-(1R,7S)-7,7-Dimethyl-2-oxo-bicyclo[2.2.1]hept-1-ylmethanesulfonylamino)-3-{4-[2-(5,6,7,8-tetrahydro-[1,8]naphthyridin-2-yl)-ethyl]-benzoylamino}-propionic acid] | 157
O=C(O)C[C@H](NC(=O)CN1CC[C@H](CCc2ccc3c(n2)NCCC3)C1=O)c1cccnc1 [3-(2-{(S)-2-Oxo-3-[2-(5,6,7,8-tetrahydro-[1,8]naphthyridin-2-yl)-ethyl]-pyrrolidin-1-yl}-acetylamino)-3-(S)-pyridin-3-yl-propionic acid] | > 10000
CNc1cccc(CCOc2ccc3c(c2)CN(CC(F)(F)F)C(=O)[C@H](CC(=O)O)C3)n1 [[(S)-8-[2-(6-Methylamino-pyridin-2-yl)-ethoxy]-3-oxo-2-(2,2,2-trifluoro-ethyl)-2,3,4,5-tetrahydro-1H-benzo[c]azepin-4-yl]-acetic acid] | > 10000
